Results reported in PubChem BioAssay AID2060882 (Molecular Pharmacology Branch, DTP, NCI, 2025).

Tested on: 898857-211-R-J1-PDC complex spheroids, growth % test/control
Assay: Anticancer human tumor 898857-211-R-J1-PDC patient-derived melanoma cell line growth inhibition [RAS]
Conditions: for IC50: curve of first compound; for viability, T/C: stronger effect = lower value
Excerpt: RAS pathway inhibitors in Combinations in Complex Spheroids
A high-throughput screen of multi-cell type tumor spheroids was designed to identify active combinations of RAS pathway inhibitors and targeted small molecules. Complex spheroids include a stromal component modeled by human endothelial cells (HUVEC) and fibroblasts modeled by human mesenchymal stem cells (MSCs). The concentration ranges selected for each drug and investigational agent were based upon clinically achievable concentrations if the clinical Cmax of the agent was known.
Compounds. The drugs and investigational agents: abemaciclib (NSC768073), cobimetinib (NSC768068), divarasib (GDC6063, NSC841802), docetaxel (NSC628503), GDC-1971 (RLY-1971, NSC841576), gemcitabine (NSC613327), inavolisib (NSC800729), ipatasertib (NSC767898), KB-0742 (NSC834161), MRTX-1133 (NSC836407), osimertinib (NSC779217), RMC-4630 (NSC839698), RMC-6236 (NSC851965), RMC-6291 (NSC852671), Ro-3306 (NSC812927), sapanisertib (NSC764658), SN-38 (NSC673596), staurosporine (NSC755774), SY5609 (NSC837396), and tovorafenib (DAY101, NSC766906), were obtained from the National Cancer Institute (NCI) Developmental Therapeutics Program Chemical Repository. The FDA-approved anticancer drug set is available from the NCI Developmental Therapeutics Program. […] The stock solutions were prepared in dimethyl sulfoxide (DMSO, Sigma-Aldrich, St. Louis, MO, cat. D2650) at 800-fold the tested concentration and stored at -70 degrees C prior to their use. All drugs and investigational agents were tested over a range starting from a high concentration at or near the clinical Cmax and decreasing in half-log increments. If the clinical Cmax for an agent had not been determined, the highest concentration tested was 10 microM.
Cell Culture. All cells were maintained in an incubator at 37 degrees C and 5% CO2 with 95% humidity. The PDC lines were cultured according to standard operating procedures established by the NCI PDMR. All PDCs were thawed and cultured in Matrigel-coated flasks prepared with a working solution of 1X Ham's F-12 nutrient mix, without supplementation (Invitrogen, Waltham, MA, cat. 11765054), 100 U/mL penicillin-streptomycin (Invitrogen, cat. 15140122), and 2.5% Matrigel (Corning Inc., Corning, NY, cat. 354248) for the first three passages. The 362531-283-R-J2-PDC and 782815-120-R-J1-PDC lines were cultured in 6C/Colon 1B media, which includes advanced DMEM/F-12 (Thermo Fisher Scientific, cat. 12634028), 10 mM HEPES (Thermo Fisher Scientific, cat. 15630080), 1X GlutaMAX supplement (Thermo Fisher Scientific, cat. 35050061), 0.1 mg/mL primocin (InvivoGen, San Diego, CA, cat. ant-pm-2), 10% defined fetal bovine serum, heat inactivated (HyClone Laboratories Inc., Logan, UT, cat. SH30070.03HI), 50% L-WRN conditioned media (ATCC, cat. CRL-3276), 1.25 mM N-Acetyl-L-cysteine (Sigma-Aldrich, cat. A9165), 10 mM nicotinamide (Sigma-Aldrich, cat. N0636), 1X B-27 supplement (Thermo Fisher Scientific, cat. 17504044), 1X N-2 supplement (Thermo Fisher Scientific, cat. 17502048), 50 ng/mL human EGF (Thermo Fisher Scientific, cat. PHG0311), and 10 microM Y-27632 dihydrochloride (Tocris Bioscience, cat. 1254). The K12877-001-R-J1-PDC line was cultured in 6I media, which includes all 6C/Colon 1B media plus 10 ng/mL human FGF-10 (PeproTech, cat. 100-26), 1 ng/mL human FGF-2 (PeproTech, cat. 100-18B), 1 µM prostaglandin E2 (Tocris Bioscience, cat. 2296), […] hydrocortisone (Sigma-Aldrich, cat. H4001), and […] bovine insulin (Sigma-Aldrich, cat. I6634). The K86415-001-R-J1-PDC line was cultured in 6D media, which includes all 6C/Colon 1B media components minus the L-WRN conditioned media. The 485176-168-R4-J1-PDC was cultured in PANC media, which includes all 6C/Colon 1B media plus 100 ng/mL human FGF-10 (PeproTech, cat. 100-26), 500 nM SB-431542 (Selleckchem, cat. S1067), and 10 nM gastrin (Tocris Bioscience, cat. 3006). […]
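Note: spheroids exposed to compound for seven days before readout.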
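Throughout, for viability, T/C: 100% = DMSO vehicle control wells.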

## NC1c2ccccc2OC12CCN(c1cnc3c(N4CCCc5ncccc54)n[nH]c3n1)CC2 (centres undefined) + CCn1c(-c2cc(N3CCN(C)CC3)cnc2C(C)OC)c2c3cc(ccc31)-c1csc(n1)CC(NC(=O)C1CC1C)C(=O)N1CCCC(N1)C(=O)OCC(C)(C)C2
Second compound 0.000949 µM
  IC50: > 10 µM
Second compound 0.003 µM
  IC50: > 10 µM
Second compound 0.00949 µM
  IC50: > 10 µM
Second compound 0.03 µM
  IC50: > 10 µM
Second compound 0.0949 µM
  IC50: 8.35 µM
Second compound 0.3 µM
  IC50: 8.21 µM
Second compound 0.000949 µM, first compound 0.0316 µM
  viability, T/C: 101%
Second compound 0.000949 µM, first compound 0.1 µM
  viability, T/C: 87.5%
Second compound 0.000949 µM, first compound 0.316 µM
  viability, T/C: 91.5%
Second compound 0.000949 µM, first compound 1 µM
  viability, T/C: 81.9%
Second compound 0.000949 µM, first compound 3.16 µM
  viability, T/C: 81.4%
Second compound 0.000949 µM, first compound 10 µM
  viability, T/C: 51%
Second compound 0.003 µM, first compound 0.0316 µM
  viability, T/C: 103%
Second compound 0.003 µM, first compound 0.1 µM
  viability, T/C: 87.9%
Second compound 0.003 µM, first compound 0.316 µM
  viability, T/C: 101%
Second compound 0.003 µM, first compound 1 µM
  viability, T/C: 85.7%
Second compound 0.003 µM, first compound 3.16 µM
  viability, T/C: 81.3%
Second compound 0.003 µM, first compound 10 µM
  viability, T/C: 55.5%
Second compound 0.00949 µM, first compound 0.0316 µM
  viability, T/C: 87.7%
Second compound 0.00949 µM, first compound 0.1 µM
  viability, T/C: 97.7%
Second compound 0.00949 µM, first compound 0.316 µM
  viability, T/C: 92.1%
Second compound 0.00949 µM, first compound 1 µM
  viability, T/C: 102%
Second compound 0.00949 µM, first compound 3.16 µM
  viability, T/C: 74.3%
Second compound 0.00949 µM, first compound 10 µM
  viability, T/C: 56.7%
Second compound 0.03 µM, first compound 0.0316 µM
  viability, T/C: 91.5%
Second compound 0.03 µM, first compound 0.1 µM
  viability, T/C: 87.8%
Second compound 0.03 µM, first compound 0.316 µM
  viability, T/C: 93.8%
Second compound 0.03 µM, first compound 1 µM
  viability, T/C: 73.5%
Second compound 0.03 µM, first compound 3.16 µM
  viability, T/C: 81.9%
Second compound 0.03 µM, first compound 10 µM
  viability, T/C: 50%
Second compound 0.0949 µM, first compound 0.0316 µM
  viability, T/C: 113%
Second compound 0.0949 µM, first compound 0.1 µM
  viability, T/C: 99.8%
Second compound 0.0949 µM, first compound 0.316 µM
  viability, T/C: 102%
Second compound 0.0949 µM, first compound 1 µM
  viability, T/C: 88.5%
Second compound 0.0949 µM, first compound 3.16 µM
  viability, T/C: 83.9%
Second compound 0.0949 µM, first compound 10 µM
  viability, T/C: 43%
Second compound 0.3 µM, first compound 0.0316 µM
  viability, T/C: 112%
Second compound 0.3 µM, first compound 0.1 µM
  viability, T/C: 92.6%
Second compound 0.3 µM, first compound 0.316 µM
  viability, T/C: 81.3%
Second compound 0.3 µM, first compound 1 µM
  viability, T/C: 98%
Second compound 0.3 µM, first compound 3.16 µM
  viability, T/C: 78.7%
Second compound 0.3 µM, first compound 10 µM
  viability, T/C: 43.5%

## C[C@@H](NC(=O)c1ncnc(N)c1Cl)c1ncc(C(=O)Nc2cc(C(F)(F)F)c(Cl)cn2)s1 + C=CC(=O)N1CCN(c2nc(OCC3CCCN3C)nc3c(F)c(-c4nc(N)cc(C)c4C(F)(F)F)c(Cl)cc23)C(C)C1
Second compound 0.00316 µM
  IC50: 5.85 µM
Second compound 0.01 µM
  IC50: 5.33 µM
Second compound 0.0316 µM
  IC50: 5.77 µM
Second compound 0.1 µM
  IC50: 5.34 µM
Second compound 0.316 µM
  IC50: 6.67 µM
Second compound 1 µM
  IC50: 5.12 µM
Second compound 0.00316 µM, first compound 0.0316 µM
  viability, T/C: 127%
Second compound 0.00316 µM, first compound 0.1 µM
  viability, T/C: 120%
Second compound 0.00316 µM, first compound 0.316 µM
  viability, T/C: 111%
Second compound 0.00316 µM, first compound 1 µM
  viability, T/C: 80.8%
Second compound 0.00316 µM, first compound 3.16 µM
  viability, T/C: 63.6%
Second compound 0.00316 µM, first compound 10 µM
  viability, T/C: 40%
Second compound 0.01 µM, first compound 0.0316 µM
  viability, T/C: 124%
Second compound 0.01 µM, first compound 0.1 µM
  viability, T/C: 116%
Second compound 0.01 µM, first compound 0.316 µM
  viability, T/C: 103%
Second compound 0.01 µM, first compound 1 µM
  viability, T/C: 90.9%
Second compound 0.01 µM, first compound 3.16 µM
  viability, T/C: 68.5%
Second compound 0.01 µM, first compound 10 µM
  viability, T/C: 27.7%
Second compound 0.0316 µM, first compound 0.0316 µM
  viability, T/C: 130%
Second compound 0.0316 µM, first compound 0.1 µM
  viability, T/C: 123%
Second compound 0.0316 µM, first compound 0.316 µM
  viability, T/C: 112%
Second compound 0.0316 µM, first compound 1 µM
  viability, T/C: 89.3%
Second compound 0.0316 µM, first compound 3.16 µM
  viability, T/C: 71.2%
Second compound 0.0316 µM, first compound 10 µM
  viability, T/C: 32.6%
Second compound 0.1 µM, first compound 0.0316 µM
  viability, T/C: 124%
Second compound 0.1 µM, first compound 0.1 µM
  viability, T/C: 110%
Second compound 0.1 µM, first compound 0.316 µM
  viability, T/C: 118%
Second compound 0.1 µM, first compound 1 µM
  viability, T/C: 92.1%
Second compound 0.1 µM, first compound 3.16 µM
  viability, T/C: 61.7%
Second compound 0.1 µM, first compound 10 µM
  viability, T/C: 36.8%
Second compound 0.316 µM, first compound 0.0316 µM
  viability, T/C: 123%
Second compound 0.316 µM, first compound 0.1 µM
  viability, T/C: 135%
Second compound 0.316 µM, first compound 0.316 µM
  viability, T/C: 114%
Second compound 0.316 µM, first compound 1 µM
  viability, T/C: 96.3%
Second compound 0.316 µM, first compound 3.16 µM
  viability, T/C: 70.8%
Second compound 0.316 µM, first compound 10 µM
  viability, T/C: 39.1%
Second compound 1 µM, first compound 0.0316 µM
  viability, T/C: 132%
Second compound 1 µM, first compound 0.1 µM
  viability, T/C: 136%
Second compound 1 µM, first compound 0.316 µM
  viability, T/C: 111%
Second compound 1 µM, first compound 1 µM
  viability, T/C: 98.5%
Second compound 1 µM, first compound 3.16 µM
  viability, T/C: 57.5%
Second compound 1 µM, first compound 10 µM
  viability, T/C: 36.7%
